Measured values taken from patent US12030878B2 (BRISTOL-MYERS SQUIBB COMPANY, priority 2017, dated 2024).

How the values were obtained:
Type in all cases: cell-based
[1] = molecular target: T1, human TLR7 (Homo sapiens, UniProt Q9NYK1); experiment: TLR7 inhibition reporter assay (HEK-Blue SEAP); settings: HEK-Blue cells overexpressing human TLR7, stimulated with gardiquimod 7.5 μM, 22 hour incubation
T1 construct: host or cells: HEK-Blue cells
T1 sequence (Q9NYK1 27-1049): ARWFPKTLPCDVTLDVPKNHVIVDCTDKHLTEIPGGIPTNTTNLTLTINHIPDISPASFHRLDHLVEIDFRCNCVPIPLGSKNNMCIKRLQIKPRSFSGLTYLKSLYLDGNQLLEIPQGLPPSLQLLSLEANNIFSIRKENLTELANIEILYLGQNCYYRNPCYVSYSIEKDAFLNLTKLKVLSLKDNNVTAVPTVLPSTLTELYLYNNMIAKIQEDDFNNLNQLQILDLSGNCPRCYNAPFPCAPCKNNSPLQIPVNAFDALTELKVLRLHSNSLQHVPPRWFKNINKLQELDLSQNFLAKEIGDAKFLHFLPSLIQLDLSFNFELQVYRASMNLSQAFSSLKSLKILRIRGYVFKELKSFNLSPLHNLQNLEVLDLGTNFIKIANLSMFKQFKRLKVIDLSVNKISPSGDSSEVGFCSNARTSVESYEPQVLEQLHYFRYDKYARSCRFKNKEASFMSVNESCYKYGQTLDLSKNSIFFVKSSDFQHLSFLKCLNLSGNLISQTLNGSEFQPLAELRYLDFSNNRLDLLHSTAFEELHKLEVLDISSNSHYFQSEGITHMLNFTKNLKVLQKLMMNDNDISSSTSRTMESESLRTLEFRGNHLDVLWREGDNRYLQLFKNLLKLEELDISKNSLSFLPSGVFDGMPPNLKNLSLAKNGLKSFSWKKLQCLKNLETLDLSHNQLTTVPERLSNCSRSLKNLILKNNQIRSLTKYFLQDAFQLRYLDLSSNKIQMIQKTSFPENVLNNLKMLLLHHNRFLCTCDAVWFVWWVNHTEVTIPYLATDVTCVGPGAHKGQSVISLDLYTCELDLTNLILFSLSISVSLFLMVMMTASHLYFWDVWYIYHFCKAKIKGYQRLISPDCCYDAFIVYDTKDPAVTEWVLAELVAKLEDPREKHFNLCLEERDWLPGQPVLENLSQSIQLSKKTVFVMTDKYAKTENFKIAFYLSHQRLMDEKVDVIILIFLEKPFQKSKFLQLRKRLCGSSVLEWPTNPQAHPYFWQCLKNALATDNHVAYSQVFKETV
Procedure: (§1) TLR7/8/9 Inhibition Reporter Assays
(§2) HEK-Blue™-cells (Invivogen) overexpressing human TLR7, TLR8 or TLR9 receptors were used for screening inhibitors of these receptors using an inducible SEAP (secreted embryonic alkaline phosphatase) reporter gene under the control of the IFN-β minimal promoter fused to five NF-κB and AP-1-binding sites. Briefly, cells are seeded into Greiner 384 well plates (15000 cells per well for TLR7, 20.000 for TLR8 and 25,000 for TLR9) and then treated with test compounds in DMSO to yield a final dose response concentration range of 0.05 nM-50 μM. After a 30 minute compound pre-treatment at room temperature, the cells are then stimulated with a TLR7 ligand (gardiquimod at a final concentration of 7.5 μM), TLR8 ligand (R848 at a final concentration of 15.9 μM) or TLR9 ligand (ODN2006 at a final concentration of 5 nM) to activate NF-κB and AP-1 which induce the production of SEAP. After a 22 hour incubation at 37° C., 5% CO2, SEAP levels are determined with the addition of HEK-Blue™ Detection reagent (Invivogen), a cell culture medium that allows for detection of SEAP, according to manufacturer's specifications. The percent inhibition is determined as the % reduction in the HEK-Blue signal present in wells treated with agonist plus DMSO alone compared to wells treated with a known inhibitor.

[2] = molecular target: T2, human TLR9 (Homo sapiens, UniProt Q9NR96); experiment: TLR9 inhibition reporter assay (HEK-Blue SEAP); settings: HEK-Blue cells overexpressing human TLR9, stimulated with ODN2006 5 nM, 22 hour incubation
T2 construct: host or cells: HEK-Blue cells
T2 sequence (Q9NR96 26-1032): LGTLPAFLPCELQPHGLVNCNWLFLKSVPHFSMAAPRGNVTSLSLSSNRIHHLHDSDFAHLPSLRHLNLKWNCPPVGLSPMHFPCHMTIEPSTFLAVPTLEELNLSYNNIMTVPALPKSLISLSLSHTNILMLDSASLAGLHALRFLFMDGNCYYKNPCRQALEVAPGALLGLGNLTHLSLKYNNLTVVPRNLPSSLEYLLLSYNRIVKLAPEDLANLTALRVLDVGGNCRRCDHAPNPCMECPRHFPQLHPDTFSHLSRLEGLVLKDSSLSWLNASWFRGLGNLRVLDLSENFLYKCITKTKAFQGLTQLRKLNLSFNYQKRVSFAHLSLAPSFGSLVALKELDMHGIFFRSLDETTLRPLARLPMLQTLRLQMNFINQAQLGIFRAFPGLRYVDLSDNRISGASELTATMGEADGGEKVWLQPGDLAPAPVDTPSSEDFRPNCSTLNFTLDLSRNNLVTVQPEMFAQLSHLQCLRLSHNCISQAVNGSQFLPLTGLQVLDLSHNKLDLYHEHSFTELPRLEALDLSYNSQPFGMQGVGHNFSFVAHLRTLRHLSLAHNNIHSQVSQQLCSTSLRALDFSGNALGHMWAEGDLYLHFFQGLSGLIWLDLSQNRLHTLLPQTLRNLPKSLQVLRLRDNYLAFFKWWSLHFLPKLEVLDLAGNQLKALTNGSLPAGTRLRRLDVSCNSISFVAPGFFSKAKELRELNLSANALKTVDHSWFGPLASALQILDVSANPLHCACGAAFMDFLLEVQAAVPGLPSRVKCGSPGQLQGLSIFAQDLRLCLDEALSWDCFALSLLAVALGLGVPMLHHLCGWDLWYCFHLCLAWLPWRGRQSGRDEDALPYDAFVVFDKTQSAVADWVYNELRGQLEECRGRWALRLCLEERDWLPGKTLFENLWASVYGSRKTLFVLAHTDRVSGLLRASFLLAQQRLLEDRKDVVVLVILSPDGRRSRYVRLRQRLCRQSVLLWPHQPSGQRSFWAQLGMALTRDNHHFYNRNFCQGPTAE
Procedure: as §1, §2

[3] = molecular target: T3, human TLR8 (Homo sapiens, UniProt Q9NR97); experiment: TLR8 inhibition reporter assay (HEK-Blue SEAP); settings: HEK-Blue cells overexpressing human TLR8, stimulated with R848 15.9 μM, 22 hour incubation
T3 construct: host or cells: HEK-Blue cells
T3 sequence (Q9NR97 27-1041): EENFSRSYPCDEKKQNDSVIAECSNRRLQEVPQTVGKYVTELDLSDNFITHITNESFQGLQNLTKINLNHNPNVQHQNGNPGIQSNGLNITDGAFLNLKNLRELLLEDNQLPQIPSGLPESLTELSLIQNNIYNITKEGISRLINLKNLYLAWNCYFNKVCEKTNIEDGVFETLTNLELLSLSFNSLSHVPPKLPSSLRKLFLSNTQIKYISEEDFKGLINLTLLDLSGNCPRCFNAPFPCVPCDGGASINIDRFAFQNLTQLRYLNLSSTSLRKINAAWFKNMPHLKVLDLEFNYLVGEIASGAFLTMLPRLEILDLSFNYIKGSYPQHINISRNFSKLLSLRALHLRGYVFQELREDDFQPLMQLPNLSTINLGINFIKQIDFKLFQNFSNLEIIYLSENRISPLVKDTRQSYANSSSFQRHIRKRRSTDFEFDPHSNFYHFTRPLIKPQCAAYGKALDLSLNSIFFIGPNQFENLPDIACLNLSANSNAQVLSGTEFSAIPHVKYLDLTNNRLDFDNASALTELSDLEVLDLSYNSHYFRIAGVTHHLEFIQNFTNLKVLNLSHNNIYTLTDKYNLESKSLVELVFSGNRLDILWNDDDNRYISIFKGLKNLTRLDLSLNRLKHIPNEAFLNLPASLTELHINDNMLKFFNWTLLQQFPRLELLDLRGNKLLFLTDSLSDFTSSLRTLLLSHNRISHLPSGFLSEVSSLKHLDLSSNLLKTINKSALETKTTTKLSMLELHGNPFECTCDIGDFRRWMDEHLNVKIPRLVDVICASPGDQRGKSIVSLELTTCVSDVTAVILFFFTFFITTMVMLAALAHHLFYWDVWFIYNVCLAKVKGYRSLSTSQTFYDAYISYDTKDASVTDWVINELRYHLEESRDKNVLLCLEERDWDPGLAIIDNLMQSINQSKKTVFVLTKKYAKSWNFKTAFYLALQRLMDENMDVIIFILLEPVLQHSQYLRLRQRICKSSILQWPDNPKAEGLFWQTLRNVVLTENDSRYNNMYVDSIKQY
Procedure: as §1, §2

SMILES	IC50 [1]	IC50 [2]	IC50 [3]
Cc1c(-c2[nH]c3ccc(OCC4CN(C(=O)CN(C)C)C4)cc3c2C(C)C)cn2cnnc2c1C [Example 108, 1-(3-(((2-(7,8-dimethyl-[1,2,4]triazolo[4,3-a]pyridin-6-yl)-3-isopropyl-1H-indol-5-yl)oxy)methyl)azetidin-1-yl)-2-(dimethylamino) ethan-1-one]	14.6 nM	852 nM	124 nM
Cc1c(-c2[nH]c3ccc(OCC4CCN(C5COC5)CC4)cc3c2C(C)C)cn(C)c(=O)c1C [Example 51, 5-(3-isopropyl-5-((1-(oxetan-3-yl)piperidin-4-yl)methoxy)-1H-indol-2-yl)-1,3,4-trimethylpyridin-2(1H)-one]	19.3 nM	> 50000 nM	2.6 nM
COc1ccc(-c2[nH]c3ccc(OCC(=O)NC[C@H]4CCNC4)cc3c2C(C)C)cc1OC [Example 119, (S)-2-((2-(3,4-dimethoxyphenyl)-3-isopropyl-1H-indol-5-yl)oxy)-N-(pyrrolidin-3-ylmethyl)acetamide]	109 nM	2700 nM	177 nM
Cc1cc(-c2[nH]c3ccc(OC4CCN(CCCC(F)(F)F)CC4)cc3c2C(C)C)cn(C)c1=O [Example 78, 5-(3-isopropyl-5-((1-(4,4,4-trifluorobutyl)piperidin-4-yl)oxy)-1H-indol-2-yl)-1,3-dimethylpyridin-2(1H)-one]	10.9 nM	6310 nM	1.1 nM
CCCN1CCC(Oc2ccc3[nH]c(-c4cn5cnnc5c(C)c4C)c(C(C)C)c3c2)CC1 [Example 63, 6-(3-isopropyl-5-((1-propylpiperidin-4-yl)oxy)-1H-indol-2-yl)-7,8-dimethyl-[1,2,4]triazolo[4,3-a]pyridine]	2.1 nM	2190 nM	2.5 nM
Cc1cc(-c2[nH]c3ccc(O[C@H]4CCCN(C)C4)cc3c2C(C)C)cn(C)c1=O [Example 37, (S)-5-(3-isopropyl-5-((1-methylpiperidin-3-yl)oxy)-1H-indol-2-yl)-1,3-dimethylpyridin-2(1H)-one]	12.8 nM	46800 nM	56.3 nM
COc1ccc(-c2[nH]c3ccc(OCC(=O)NC4CCCC(N)C4)cc3c2C(C)C)cc1OC (stereo not drawn) [Example 128, N-(3-aminocyclohexyl)-2-((2-(3,4-dimethoxyphenyl)-3-isopropyl-1H-indol-5-yl)oxy) acetamide]	62.1 nM	576 nM	54.2 nM
Cc1cc(-c2[nH]c3ccc(OCC4CN(CCS(C)(=O)=O)C4)cc3c2C(C)C)cn2ncnc12 [Example 92, 6-(3-isopropyl-5-((1-(2-(methylsulfonyl)ethyl)azetidin-3-yl)methoxy)-1H-indol-2-yl)-8-methyl-[1,2,4]triazolo[1,5-a]pyridine]	1.2 nM	6040 nM	3.8 nM
Cc1cc(-c2[nH]c3ccc(OCC4CCCN(CC(C)(C)O)C4)cc3c2C(C)C)cc(C)n1 (stereo not drawn) [Example 23, 1-(3-(((2-(2,6-dimethylpyridin-4-yl)-3-isopropyl-1H-indol-5-yl)oxy)methyl)piperidin-1-yl)-2-methylpropan-2-ol]	9.6 nM	557 nM	4.4 nM
Cc1cc(-c2[nH]c3ccc(OC4CCN(CC(=O)O)CC4)cc3c2C(C)C)cc(C)n1 [Example 197, 2-(4-((2-(2,6-dimethylpyridin-4-yl)-3-isopropyl-1H-indol-5-yl)oxy)piperidin-1-yl)acetic acid]	679 nM	25200 nM	462 nM
Cc1cc(-c2[nH]c3ccc(OCC4CCN(C)CC4)cc3c2C(C)C)cn2ncnc12 [Example 41, 6-(3-isopropyl-5-((1-methylpiperidin-4-yl)methoxy)-1H-indol-2-yl)-8-methyl-[1,2,4]triazolo[1,5-a]pyridine]	1.2 nM	3440 nM	5.7 nM
COc1ccc(-c2[nH]c3ccc(OCC(=O)N[C@@H]4CCNC4)cc3c2C(C)C)cc1OC [Example 135, (R)-2-((2-(3,4-dimethoxyphenyl)-3-isopropyl-1H-indol-5-yl)oxy)-N-(pyrrolidin-3-yl)acetamide]	185 nM	1820 nM	24.1 nM
Cc1cc(-c2[nH]c3ccc(OCC4CCCNC4)cc3c2C(C)C)cc(C)n1 (stereo not drawn) [Example 94, 2-(2,6-dimethylpyridin-4-yl)-3-isopropyl-5-(piperidin-3-ylmethoxy)-1H-indole]	3 nM	243 nM	4.7 nM
